# Results taken from US4386103A, “Dichloroamino acid derivatives useful as potent germicidal and fungicidal agents” (Merck & Co., Inc., priority 1981, dated 1983).
# Key:
# Assay type in all cases: cell-based
# [1] = tested on: Bacillus subtilis; assay: Contact germicidal screen, Bacillus subtilis ATCC No. 60511
# Procedure: (§1) The organisms used in the contact germicidal screen are all maintained as stock cultures on nutrient agar […] 4° C. They are transferred and biochemically diagnosed monthly. The five organisms used are: The media used are: […] Overnight cultures of the test organisms are grown in tryptose phosphate broth. After 15-16 hours, the cultures are centrifuged at […] for 15 minutes, and the supernatant replaced with fresh warm (37° C.) media. After two hours of incubation, the absorbance of the culture at 650 nm is determined and diluted with nutrient broth to 1×10^7 colony forming units per ml (using a previous determined standard curve: colony forming units/ml vs. absorbance at 650). The diluted cultures are maintained at 4°-8° C. throughout the screen. The compounds are weighed into sterile 100 ml volumetric flasks, and immediately before screening dissolved in one of the following buffers: 0.1 M NaOAc pH 4.6 or 0.1 M NaH2 PO4 pH 7.0. If solubility poses a problem, 10-30% methanol is used to effect solution. Two denaturing agents are also tested: […] Horse Serum restored with 100 ml distilled water and 10% Trition×100. When used, 2.5 ml of the denaturing agent is mixed with 2.5 ml of double strength test solution thirty minutes before the bacterial suspension is added. The screen is initiated when 0.2 ml of the bacterial suspension is added to 5.0 ml of the test solution contained in a sterile 25 ml glass stoppered flask. At intervals of 0.5, 2.5, 5.0, 10.0 and 15.0 minutes, a loopful of the inoculated test solution is subcultured into 5 ml of sterile nutrient broth and mixed with a vortex, the high dilution serving to stop the action of the compound. All of the subculture tubes are incubated at 37° C. and checked for signs of growth by turbidity at 1, 3, 5 and 7 days. The earliest subculture time at which no growth is present is considered the endpoint and is recorded as the sterilization time. An aliquot of 0.2 ml of the diluted culture is transferred to 5 ml of buffer to simulate 0.2 ml in 5 ml of test solution. (a) Purity: A loopful of the inoculated buffer is streaked onto nutrient agar to check colony morphology and lack of contaminants. (b) Viability: A loopful of the inoculated buffer is subcultured to 5 ml of nutrient broth as in the screen and incubated at 37° C. for 24 hours. (c) Dilution of the Test Solution: A loopful of the test solution is transferred to a 5 ml tube of nutrient broth, and a loopful of the inoculated buffer is transferred to the same tube of broth. […] (d) Purity of Organisms in the Test Solution: After the 15 minute subculture, a loopful of the inoculated test solution is streaked onto nutrient agar to insure that contamination has not occurred during the screen. (e) lack of Bactericidal Activity of Buffers and Other Solvents: Before a buffer or other solvent is used as a diluent, it is screened against the five organisms to insure that the buffer or solvent has no antibacterial activity itself.
# [2] = tested on: Salmonella typhimurium; assay: Contact germicidal screen, Salmonella typhimurium ATCC No. 13311
# Procedure: as §1
# [3] = tested on: Aspergillus fumigatus; assay: Contact fungicidal screen, Aspergillus fumigatus; settings: 0.1M NaOAc pH 4.6
# Procedure: The organisms used in the Contact Fungicidal Screen are a dermatophyte, trychophyton mentagrophytes, frequently associated with athlete's foot; a yeast, Candida albican, causative agent of thrush and vaginitis; a phycomycete, Rhizopus oryzae, commonly known as black bread mold; an ascomycete, Aspergillus fumagatis, found in chicken droppings and causing lung infections; and another dermatophyte, Microsporum canis, which causes ringworm. These organisms are maintained as stock cultures at 4° C. on agar […] of the following composition: dextrose 2%, Neopeptone (Difco) 1%, agar 2%. Fluid medium of the same nutrient composition (without agar) was used to test the viability of the organisms after exposure to the fungicide. This medium is also known as Sabouraud's medium. Sabouraud's agar plate cultures of Aspergillus fumigatus, Microsporum canis, and a different culture of Trychophyton mentagrophytes are prepared by planting an inoculum at the center of an agar plate and incubating at 25°-30° C. for seven to ten days. The mycelial mats are removed from the surface of the agar and prepared in the same manner as the Rhizopus culture. The compounds are weighed into heat sterilized 100 ml volumetric flasks and immediately before screening dissolved in 0.1 M NaOAc pH 4.6 buffer (test solutions). The Aspergillus, Candida, Microsporum and Rhizopus species are screened in a slightly different manner. Basically, the procedure for the Contact Germicidal Efficiency Screen is utilized. After the test solutions are made up, 5 ml aliquots are pipetted into heat sterilized 25 ml glass stoppered erlenmeyer flasks. The screen is initiated when 0.5 ml of the 5×10^6 cell (spore) per ml suspension is added to the flask containing 5 ml of the test solution. […] The subculture tubes are incubated at 25°-30° C. for ten days with daily observation for mycelial growth. The earliest subculture time at which no growth is present is considered the endpoint and is recorded as the sterilization time. To insure the viability of the culture, a 0.5 ml aliquot of the 5×10^6 cells (spores) per ml suspension is transferred to 5 ml of the pH 4.6 buffer. A loopful of the inoculated buffer is then subcultured to 7 ml of fluid Sabouraud's medium and incubated at 25°-30° C. for ten days. To insure that the dilution of the test solution into the subculture medium does stop the action, a loopful of the test solution and a loopful of the inoculated buffer are transferred into the same subculture tube. This tube is also incubated at 25°-30° C. for ten days.
# [4] = tested on: Trychophyton mentagrophytes; assay: Contact fungicidal screen, Trychophyton mentagrophytes; settings: 0.1M NaOAc pH 4.6
# [5] = 10.0+ PPM, 0.1M NaOAc pH 4.6, screened simultaneously with four other compounds
# [6] = 300 PPM with 50% Horse Serum, 0.1M NaOAc pH 4.6
# [7] = 300 PPM with 50% Triton X100, 0.1M NaOAc pH 4.6
# [8] = 308.0 PPM, Triton X100 (10% solution):pH 4.6 buffer 1:1
# [9] = 338.7 PPM, horse serum:pH 4.6 buffer 1:1
# [10] = 1000 PPM with 50% Horse Serum, 0.1M NaOAc pH 4.6
# [11] = 1024.0 PPM, horse serum:pH 4.6 buffer 1:1
# [12] = 1070.3 PPM, 0.1M NaH2PO4 pH 7.0
# [13] = 291.4 PPM, Triton X100 (10% solution):pH 4.6 buffer 1:1
# [14] = 291.4 PPM, horse serum:pH 4.6 buffer 1:1
# [15] = 1024.4 PPM, 0.1M NaH2PO4 pH 7.0
# [16] = 1042.0 PPM, horse serum:pH 4.6 buffer 1:1
SMILES,"Sterilization Time [1, 5] [min]","Sterilization Time (summary) ([1]; 10 PPM, 0.1M NaOAc pH 4.6) [min]","Sterilization Time (summary) ([1]; 100 PPM, 0.1M NaOAc pH 4.6) [min]","Sterilization Time (summary) [1, 6] [min]","Sterilization Time (summary) [1, 7] [min]","Sterilization Time (summary) [1, 10] [min]","Sterilization Time (summary) ([1]; 1000 PPM, 0.1M NaOAc pH 4.6) [min]","Sterilization Time [2, 5] [min]","Sterilization Time (summary) ([2]; 10 PPM, 0.1M NaOAc pH 4.6) [min]","Sterilization Time (summary) ([2]; 100 PPM, 0.1M NaOAc pH 4.6) [min]","Sterilization Time (summary) [2, 6] [min]","Sterilization Time (summary) [2, 7] [min]","Sterilization Time (summary) [2, 10] [min]","Sterilization Time (summary) ([2]; 1000 PPM, 0.1M NaOAc pH 4.6) [min]",Sterilization Time ([3]; 10 PPM) [min],Sterilization Time ([3]; 100 PPM) [min],Sterilization Time ([3]; 1000 PPM) [min],Sterilization Time ([4]; 10 PPM) [min],Sterilization Time ([4]; 100 PPM) [min],Sterilization Time ([4]; 1000 PPM) [min],other results
"CC(C)(COC(=O)CCC(=O)O)N(Cl)Cl [(IV), 2-Dichloroamino-2-methylpropylhemisuccinate]",2.5,2.5,2.5,5.0,0.5,0.5,0.5,2.5,2.5,0.5,10.0,0.5,2.5,0.5,15,15,15,5.0,2.5,0.5,"Sterilization Time ([1]; 8.6 PPM, 0.1M NaOAc pH 4.6): 5.0 min; Sterilization Time ([1]; 9.8 PPM, 0.1M NaH2PO4 pH 7.0): 15 min; Sterilization Time ([1]; 106.2 PPM, 0.1M NaOAc pH 4.6): 2.5 min; Sterilization Time ([1]; 149.7 PPM, 0.1M NaH2PO4 pH 7.0): 10.0 min; Sterilization Time [1, 8]: 0.5 min; Sterilization Time [1, 9]: 5.0 min; Sterilization Time ([1]; 1008.0 PPM, 0.1M NaOAc pH 4.6): 0.5 min; Sterilization Time [1, 11]: 0.5 min; Sterilization Time [1, 12]: 2.5 min; Sterilization Time ([2]; 8.6 PPM, 0.1M NaOAc pH 4.6): 5.0 min; Sterilization Time ([2]; 9.8 PPM, 0.1M NaH2PO4 pH 7.0): 15 min; Sterilization Time ([2]; 106.2 PPM, 0.1M NaOAc pH 4.6): 0.5 min; Sterilization Time ([2]; 149.7 PPM, 0.1M NaH2PO4 pH 7.0): 15.0 min; Sterilization Time [2, 8]: 0.5 min; Sterilization Time [2, 9]: 10.0 min; Sterilization Time ([2]; 1008.0 PPM, 0.1M NaOAc pH 4.6): 0.5 min; Sterilization Time [2, 11]: 2.5 min; Sterilization Time [2, 12]: 0.5 min"
"CC(C)(COC(=O)CCCC(=O)O)N(Cl)Cl [(V), 2-dichloramino-2-methylpropyl-hemiglutarate]",2.5,2.5,2.5,5.0,0.5,0.5,0.5,2.5,2.5,0.5,10.0,0.5,2.5,0.5,15,15,15,5.0,2.5,0.5,"Sterilization Time ([1]; 10.0 PPM, 0.1M NaH2PO4 pH 7.0): 15 min; Sterilization Time ([1]; 10.0 PPM, 0.1M NaOAc pH 4.6): 5.0 min; Sterilization Time ([1]; 99.1 PPM, 0.1M NaOAc pH 4.6): 2.5 min; Sterilization Time ([1]; 106.7 PPM, 0.1M NaH2PO4 pH 7.0): 10.0 min; Sterilization Time [1, 13]: 0.5 min; Sterilization Time [1, 14]: 5.0 min; Sterilization Time ([1]; 911.8 PPM, 0.1M NaOAc pH 4.6): 0.5 min; Sterilization Time [1, 15]: 2.5 min; Sterilization Time [1, 16]: 0.5 min; Sterilization Time ([2]; 10.0 PPM, 0.1M NaH2PO4 pH 7.0): 15 min; Sterilization Time ([2]; 10.0 PPM, 0.1M NaOAc pH 4.6): 5.0 min; Sterilization Time ([2]; 99.1 PPM, 0.1M NaOAc pH 4.6): 0.5 min; Sterilization Time ([2]; 106.7 PPM, 0.1M NaH2PO4 pH 7.0): 15 min; Sterilization Time [2, 13]: 0.5 min; Sterilization Time [2, 14]: 10.0 min; Sterilization Time ([2]; 911.8 PPM, 0.1M NaOAc pH 4.6): 0.5 min; Sterilization Time [2, 15]: 5.0 min; Sterilization Time [2, 16]: 2.5 min"
